From US10501421B1, “Substituted benzimidazoles as modulators of Ras signaling” (VANDERBILT UNIVERSITY, priority 2017, dated 2019)

What was measured:
[1] = target: Ras GEF SOS (Son of Sevenless) (Homo sapiens, UniProt Q07889); experiment: SOS-mediated nucleotide exchange on Ras (BODIPY-GDP fluorescence); type: biochemical; settings: SOS-mediated exchange of BODIPY-GDP for GTP on Ras
Method in brief: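 Exchange rates were taken from single-exponential fits of the fluorescence time course as BODIPY-GDP on Ras was replaced by GTP. Compound went in first, then GTP and SOS. Mean rates plotted against concentration gave EC50 by four-parameter dose-response fitting.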

[2] = target: T1, Son of Sevenless (SOS) (Homo sapiens, UniProt Q07889); experiment: Binding to SOS, fluorescence polarization anisotropy (FPA) probe displacement; settings: displacement of FITC-conjugated probe (Example 285), affinity calculated from IC50
T1 sequence (Q07889 564-1049 limits assumed): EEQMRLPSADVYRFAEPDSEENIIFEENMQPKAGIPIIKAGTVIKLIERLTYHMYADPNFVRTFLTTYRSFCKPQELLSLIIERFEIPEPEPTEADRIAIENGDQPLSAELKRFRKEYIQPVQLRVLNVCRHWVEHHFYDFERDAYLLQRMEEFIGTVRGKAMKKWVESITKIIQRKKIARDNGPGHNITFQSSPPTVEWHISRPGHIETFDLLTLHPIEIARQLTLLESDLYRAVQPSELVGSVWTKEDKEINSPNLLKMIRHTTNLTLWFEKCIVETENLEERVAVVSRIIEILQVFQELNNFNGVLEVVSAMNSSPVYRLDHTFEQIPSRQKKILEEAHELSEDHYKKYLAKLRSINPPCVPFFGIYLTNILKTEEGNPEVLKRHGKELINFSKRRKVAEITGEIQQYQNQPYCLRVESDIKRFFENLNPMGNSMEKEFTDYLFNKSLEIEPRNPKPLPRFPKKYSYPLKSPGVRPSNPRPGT
Method in brief: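 Test compounds were titrated against SOS pre-bound to a fluorescein-labelled probe, with anisotropy plotted versus compound concentration. Binding affinities were derived from IC50 values obtained by four-parameter dose-response fitting.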

Ras GEF SOS (Son of Sevenless), sequence (P01112 1-166 partner limits assumed, one chain of several): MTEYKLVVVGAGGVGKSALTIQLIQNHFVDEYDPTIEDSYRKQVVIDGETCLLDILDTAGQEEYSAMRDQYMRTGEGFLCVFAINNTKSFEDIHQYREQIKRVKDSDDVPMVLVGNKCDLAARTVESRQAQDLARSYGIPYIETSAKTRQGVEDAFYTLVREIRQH

Row | Compound | EC50 [1] [µM] | Ki [2] [µM]
1 | Cc1cc(Cn2c(N3CCNCC3)nc3c(OCCN4CCCC4)cccc32)ccc1F [Example 208, 1-(4-fluoro-3-methylbenzyl)-2-(piperazin-1-yl)-4-(2-(pyrrolidin-1-yl)ethoxy)-1H-benzo[d]imidazole] | < 1 | > 5
2 | Cc1cc(Cn2c(N3CCNCC3)nc3c(OCCN4CCN(C)CC4)cccc32)ccc1F [Example 209, 1-(4-fluoro-3-methylbenzyl)-4-(2-(4-methylpiperazin-1-yl)ethoxy)-2-(piperazin-1-yl)-1H-benzo[d]imidazole] | < 1 | > 5
3 | Cc1cc(Cn2c(N3CCNCC3)nc3c(OCCN(C)C)cccc32)ccc1F [Example 210, 2-((1-(4-fluoro-3-methylbenzyl)-2-(piperazin-1-yl)-1H-benzo[d]imidazol-4-yl)oxy)-N,N-dimethylethan-1-amine] | < 1 | > 5
4 | Cc1cc2c(cc1C)N(Cc1ccc(F)c(Cl)c1)C1=NCCCN12 [Example 213, 10-(3-chloro-4-fluorobenzyl)-7,8-dimethyl-2,3,4,10-tetrahydrobenzo[4,5]imidazo[1,2-a]pyrimidine] | 1 to 5 | > 5
5 | Fc1ccc(CN2C3=NCCCN3c3cc(Cl)ccc32)cc1Cl [Example 214, 7-chloro-10-(3-chloro-4-fluorobenzyl)-2,3,4,10-tetrahydrobenzo[4,5]imidazo[1,2-a]pyrimidine] | 30 to 100 | > 5
6 | Cc1cc2c(nc(N3CCNCC3)n2Cc2ccc(F)c(C)c2)c(-c2ccccc2F)n1 [Example 217, 1-(4-fluoro-3-methylbenzyl)-4-(2-fluorophenyl)-6-methyl-2-(piperazin-1-yl)-1H-imidazo[4,5-c]pyridine] | 1 to 5 | > 5
7 | Cc1cc2c(nc(N3CCNCC3)n2Cc2ccc(F)c(C)c2)c(Cl)n1 [Example 218, 4-chloro-1-(4-fluoro-3-methylbenzyl)-6-methyl-2-(piperazin-1-yl)-1H-imidazo[4,5-c]pyridine] | 5 to 30 | > 5
8 | Cc1cc2c(nc(N3CCNCC3)n2Cc2ccc(F)c(C)c2)c(-c2ccccc2C(C)C)n1 [Example 219, 1-(4-fluoro-3-methylbenzyl)-4-(2-isopropylphenyl)-6-methyl-2-(piperazin-1-yl)-1H-imidazo[4,5-c]pyridine] | 5 to 30 | > 5
9 | Cc1cc2c(nc(N3CCNCC3)n2Cc2ccc(F)c(C)c2)c(-c2ccccc2C)n1 [Example 225, 1-(4-fluoro-3-methylbenzyl)-6-methyl-2-(piperazin-1-yl)-4-(o-tolyl)-1H-imidazo[4,5-c]pyridine] | 5 to 30 | > 5
10 | Cc1cc2c(nc(N3CCNCC3)n2Cc2ccc(F)c(C)c2)c(-c2ccc(CN)cc2)n1 [Example 229, (4-(1-(4-fluoro-3-methylbenzyl)-6-methyl-2-(piperazin-1-yl)-1H-imidazo[4,5-c]pyridin-4-yl)phenyl)methanamine] | 1 to 5 | > 5
11 | COc1ccc(-c2nc(C)cc3c2nc(N2CCNCC2)n3Cc2ccc(F)c(C)c2)cc1OC [Example 230, 4-(3,4-dimethoxyphenyl)-1-(4-fluoro-3-methylbenzyl)-6-methyl-2-(piperazin-1-yl)-1H-imidazo[4,5-c]pyridine] | 5 to 30 | > 5
12 | Cc1cc2c(nc(N3CCNCC3)n2Cc2ccc(F)c(C)c2)c(CNCC(C)C)n1 [Example 231, N-((1-(4-fluoro-3-methylbenzyl)-6-methyl-2-(piperazin-1-yl)-1H-imidazo[4,5-c]pyridin-4-yl)methyl)-2-methylpropan-1-amine] | 5 to 30 | > 5
13 | Cc1cc2c(nc(N3CCNCC3)n2Cc2ccc(F)c(C)c2)c(CNC2CCCC2)n1 [Example 232, N-((1-(4-fluoro-3-methylbenzyl)-6-methyl-2-(piperazin-1-yl)-1H-imidazo[4,5-c]pyridin-4-yl)methyl)cyclopentanamine] | 5 to 30 | > 5
14 | Cc1cc2c(nc(N3CCNCC3)n2Cc2ccc(F)c(C)c2)c(CNC(C)C)n1 [Example 233, N-((1-(4-fluoro-3-methylbenzyl)-6-methyl-2-(piperazin-1-yl)-1H-imidazo[4,5-c]pyridin-4-yl)methyl)propan-2-amine] | 5 to 30 | > 5
15 | Cc1cc2c(nc(N3CCNCC3)n2Cc2ccc(F)c(C)c2)c(CNCCC(C)C)n1 [Example 234, N-((1-(4-fluoro-3-methylbenzyl)-6-methyl-2-(piperazin-1-yl)-1H-imidazo[4,5-c]pyridin-4-yl)methyl)-3-methylbutan-1-amine] | 5 to 30 | > 5
16 | Cc1cc2c(nc(N3CCNCC3)n2Cc2ccc(F)c(C)c2)c(CN2CCCCC2)n1 [Example 235, 1-(4-fluoro-3-methylbenzyl)-6-methyl-2-(piperazin-1-yl)-4-(piperidin-1-ylmethyl)-1H-imidazo[4,5-c]pyridine] | 30 to 100 | > 5
17 | Clc1ccc(Cn2c(N3CCNCC3)nc3ncccc32)cc1 [Example 251, 1-(4-chlorobenzyl)-2-(piperazin-1-yl)-1H-imidazo[4,5-b]pyridine] | 30 to 100 | > 5
18 | Cc1ccc2nc([C@@H]3CCC(=O)N3)n(Cc3ccc(F)c(Cl)c3)c2c1 [Example 274, (5S)-5-[1-[(3-chloro-4-fluorophenyl)methyl]-6-methylbenzimidazol-2-yl]pyrrolidin-2-one] | 1 to 5 | > 5
19 | Cc1cc2nc(N3CCNCC3)n(Cc3cc(Cl)c(F)c(Cl)c3)c2cc1C [Example 277, 1-[(3,5-dichloro-4-fluorophenyl)methyl]-5,6-dimethyl-2-piperazin-1-ylbenzimidazole] | 1 to 5 | > 5

Next, values leading:

Row | EC50 [1] [µM] | Ki [2] [µM] | Compound
20 | < 1 | 0.5 to 1 | Cc1cc2c(nc(N3CC(CN)C3)n2Cc2ccc(F)c(C)c2)c(-c2ccccc2F)n1 [Example 216, (1-(1-(4-fluoro-3-methylbenzyl)-4-(2-fluorophenyl)-6-methyl-1H-imidazo[4,5-c]pyridin-2-yl)azetidin-3-yl)methanamine]
21 | 5 to 30 | > 5 | Cc1cc2c(nc(NCCN)n2Cc2ccc(F)c(C)c2)c(-c2ccccc2C)n1 [Example 224, N^1-(1-(4-fluoro-3-methylbenzyl)-6-methyl-4-(o-tolyl)-1H-imidazo[4,5-c]pyridin-2-yl)ethane-1,2-diamine]
22 | 5 to 30 | > 5 | Cc1cc2c(nc(N3CCNCC3)n2Cc2ccc(F)c(C)c2)c(-c2ccncc2)n1 [Example 226, 1-(4-fluoro-3-methylbenzyl)-6-methyl-2-(piperazin-1-yl)-4-(pyridin-4-yl)-1H-imidazo[4,5-c]pyridine]
23 | 1 to 5 | > 5 | Cc1cc2c(nc(N3CCNCC3)n2Cc2ccc(F)c(C)c2)c(-c2cccnc2C)n1 [Example 227, 1-(4-fluoro-3-methylbenzyl)-6-methyl-4-(2-methylpyridin-3-yl)-2-(piperazin-1-yl)-1H-imidazo[4,5-c]pyridine]
24 | 5 to 30 | > 5 | COc1ccccc1-c1nc(C)cc2c1nc(N1CCNCC1)n2Cc1ccc(F)c(C)c1 [Example 228, 1-(4-fluoro-3-methylbenzyl)-4-(2-methoxyphenyl)-6-methyl-2-(piperazin-1-yl)-1H-imidazo[4,5-c]pyridine]
25 | 1 to 5 | > 5 | Cc1cnc2nc(NCCN)n(Cc3ccc(F)c(C)c3)c2c1 [Example 245, N^1-(1-(4-fluoro-3-methylbenzyl)-6-methyl-1H-imidazo[4,5-b]pyridin-2-yl)ethane-1,2-diamine]
26 | 1 to 5 | 1 to 5 | Cc1cnc2nc(NCCN)n(Cc3ccc(F)c(Cl)c3)c2c1 [Example 246, N^1-(1-(3-chloro-4-fluorobenzyl)-6-methyl-1H-imidazo[4,5-b]pyridin-2-yl)ethane-1,2-diamine]
27 | 1 to 5 | 1 to 5 | Cc1cnc2nc(NC3CCNC3)n(Cc3ccc(F)c(Cl)c3)c2c1 (stereo not drawn) [Example 247, 1-(3-chloro-4-fluorobenzyl)-6-methyl-N-(pyrrolidin-3-yl)-1H-imidazo[4,5-b]pyridin-2-amine]
28 | 1 to 5 | 1 to 5 | Cc1cc2c(nc(N3CCNCC3)n2Cc2ccc(F)c(Cl)c2)c(-c2cccnc2)c1C [Example 265, 1-[(3-chloro-4-fluorophenyl)methyl]-5,6-dimethyl-2-piperazin-1-yl-4-pyridin-3-ylbenzimidazole]
29 | 5 to 30 | > 5 | Fc1ccc(Cn2c(N3CCNCC3)nc3c(-c4cccnc4OCc4ccccc4)cccc32)cc1Cl [Example 266, 1-[(3-chloro-4-fluorophenyl)methyl]-4-(2-phenylmethoxypyridin-3-yl)-2-piperazin-1-ylbenzimidazole]
30 | < 1 | 1 to 5 | OCc1cc(Cl)cc2c1nc(N1CCNCC1)n2Cc1ccc(F)c(Cl)c1 [Example 278, [6-chloro-1-[(3-chloro-4-fluorophenyl)methyl]-2-piperazin-1-ylbenzimidazol-4-yl]methanol]
